Measured values from ChEMBL document CHEMBL1833830, “1-[2-(2-Benzoyl- and 2-benzylphenoxy)ethyl]uracils as potent anti-HIV-1 agents” (Bioorg Med Chem, 2011).
pEC50, pKi: −log10 of the molar value. Activity calls are given as the source filed them. The calls are words filed in the database; no cut-off is given here.

Experiments:
[1] = system: Punta Toro virus; experiment: Antiviral activity against Punta Toro virus assessed as inhibition of viral replication; assay type: functional, organism-based
[2] = system: Rift Valley fever virus; experiment: Antiviral activity against Rift Valley fever virus assessed as inhibition of viral replication; assay type: functional, organism-based
[3] = system: Human alphaherpesvirus 1; experiment: Antiviral activity against HSV1 assessed as inhibition of viral replication; assay type: functional, organism-based
[4] = system: Mammalian orthoreovirus 1; experiment: Antiviral activity against Reovirus 1 assessed as inhibition of viral replication; assay type: functional, organism-based
[5] = system: Human immunodeficiency virus 1; assay type: functional, organism-based; conditions: Human immunodeficiency virus 1, 3B, MT4, 96 h
[6] = Cytotoxicity against human MT4 cells after 4 days by MTT assay; assay type: cell-based
[7] = system: West Nile virus; experiment: Antiviral activity against West Nile virus assessed as inhibition of viral replication; assay type: functional, organism-based
[8] = system: Vaccinia virus; experiment: Antiviral activity against Vaccinia virus assessed as inhibition of viral replication; assay type: functional, organism-based; conditions: Orthopoxvirus vaccinia
[9] = in vitro; conditions: human, MT4 cells
[10] = Inhibition of DNA-dependent DNA polymerase activity of HIV1 reverse transcriptase p66/p66 homodimer using activated DNA and [alpha-32P]dATP after 30 mins by liquid scintillation counting; parameters: species or system Human immunodeficiency virus 1
[11] = system: Coxsackievirus B4; experiment: Antiviral activity against Coxsackievirus B4 assessed as inhibition of viral replication; assay type: functional, organism-based
[12] = in vitro; conditions: human, MT4 cells; remark: listed apart in the source
[13] = system: Yellow fever virus; experiment: Antiviral activity against Yellow fever virus assessed as inhibition of viral replication; assay type: functional, organism-based
[14] = system: Dengue virus; experiment: Antiviral activity against Dengue virus assessed as inhibition of viral replication; assay type: functional, organism-based
[15] = system: Human immunodeficiency virus 2; experiment: Antiviral activity against Human immunodeficiency virus type 2 ROD infected in human MT4 cells assessed as inhibition of virus-induced cytopathic effect after 4 days by MTT assay; assay type: functional, organism-based; conditions: ISOLATE ROD
[16] = system: Vesicular stomatitis virus; experiment: Antiviral activity against Vesicular stomatitis virus assessed as inhibition of viral replication; assay type: functional, organism-based
[17] = system: Human respirovirus 3; experiment: Antiviral activity against Parainfluenza 3 virus assessed as inhibition of viral replication; assay type: functional, organism-based
[18] = target: Human immunodeficiency virus type 1 reverse transcriptase (Human immunodeficiency virus 1, UniProt Q72547); experiment: Inhibition of RNA-dependent DNA polymerase activity of HIV1 reverse transcriptase p66/p51 heterodimer using [8-3H]dGTP as substrate after 30 mins by liquid scintillation counting
[19] = system: Human alphaherpesvirus 2; experiment: Antiviral activity against HSV-2 assessed as inhibition of viral replication; assay type: functional, organism-based
[20] = system: Feline coronavirus; experiment: Antiviral activity against Feline coronavirus assessed as inhibition of viral replication; assay type: functional, organism-based
[21] = system: Sindbis virus; experiment: Antiviral activity against Sindbis virus assessed as inhibition of viral replication; assay type: functional, organism-based
[22] = system: Human immunodeficiency virus 1; experiment: microbe, parasite or virus in culture; conditions: Human immunodeficiency virus 1, 3B, MT4, 96 h
[23] = system: Human immunodeficiency virus 2; experiment: Antiviral activity against Human immunodeficiency virus type 2 ROD infected in human CEM cells assessed as inhibition of virus-induced giant cell formation after 4 days by microscopic analysis; assay type: functional, organism-based; conditions: ISOLATE ROD, CCRF-CEM
[24] = system: Respiratory syncytial virus; experiment: Antiviral activity against Respiratory syncytial virus assessed as inhibition of viral replication; assay type: functional, organism-based

Row | Structure (SMILES) | Activity [1] | Activity [2] | Activity [3] | Activity [4] | pEC50 [5] | CC50 at 96 h [6] [nM] | Activity [7] | Activity [8] | selectivity ratio [9] | pKi [10] | Activity [11] | selectivity ratio [12] | Activity [13] | Activity [14] | Activity [15] | Activity [16] | Activity [17] | pKi [18] | Activity [19] | Activity [20] | also measured
1 | O=C(c1ccccc1)c1cc(F)ccc1OCCn1ccc(=O)[nH]c1=O | inactive | inactive | inactive | inactive | 3.77 | > 353000 | inactive | inactive | > 694 | 5.54 | inactive | > 2 | inactive | inactive | inactive | inactive | inactive | 5.59 | inactive | inactive | Activity [21]: inactive; pEC50 [22]: 6.29; Activity [23]: inactive; Activity [24]: inactive
2 | Cc1cccc(C(=O)c2cc(Cl)ccc2OCCn2ccc(=O)[nH]c2=O)c1 | inactive | inactive | inactive | inactive | 4.28 | > 325000 | inactive | inactive | > 6250 | 6.31 | inactive | > 6 | inactive | inactive | inactive | inactive | inactive | 6.68 | inactive | inactive | Activity [21]: inactive; pEC50 [22]: 7.28; Activity [23]: inactive; Activity [24]: inactive
3 | Cc1cc(C)cc(C(=O)c2cc(Cl)ccc2OCCn2cc(C)c(=O)[nH]c2=O)c1 | inactive | inactive | inactive | inactive | 5.39 | > 303000 | inactive | inactive | > 6880 | 5.92 | inactive | > 74 | inactive | inactive | inactive | inactive | inactive | 5.96 | inactive | inactive | Activity [21]: inactive; pEC50 [22]: 7.36; Activity [23]: inactive; Activity [24]: inactive
4 | Cc1ccc(OCCn2ccc(=O)[nH]c2=O)c(C(=O)c2ccccc2)c1 | inactive | inactive | inactive | inactive | < 3.45 | > 357000 | inactive | inactive | > 1140 | 5.25 | inactive | 1 | inactive | inactive | inactive | inactive | inactive | 5.77 | inactive | inactive | Activity [21]: inactive; pEC50 [22]: 6.51; Activity [23]: inactive; Activity [24]: inactive
5 | Cc1cc(C)cc(C(=O)c2cc(Cl)ccc2OCCn2c(C)cc(=O)[nH]c2=O)c1 | inactive | inactive | inactive | inactive | 5.39 | > 303000 | inactive | inactive | > 15100 | 6.14 | inactive | > 74 | inactive | inactive | inactive | inactive | inactive | 5.77 | inactive | inactive | Activity [21]: inactive; pEC50 [22]: 7.70; Activity [23]: inactive; Activity [24]: inactive
